Entries after “also recorded” stand apart in the source; their conditions may differ. Like-named read-outs stand apart in the source and are kept apart here. Where no end group is shown, it is not given here. PEG = not defined here; ADR = adriamycin
How the values were obtained:
mouse CTLL-2 cells = experiment: In vitro cytotoxic activity against mouse CTLL-2 cells (MTS cell viability assay)
Method: CTLL-2 cells express the IL-2 high affinity receptor. […] Thereafter, cell viability was assessed by a colorimetric method using the tetrazolium compound MTS (3-(4,5-dimethylthiazol-2-yl)-5-(3-carboxymethoxyphenyl)-2-(4-sulfophenyl)-2H-tetrazolium, inner salt) and an electron coupling reagent, PMS (phenazine methosulfate). A. J. Cory et al., 3 Cancer Commun. […] MTS is bioreduced by living cells into a soluble formazan product. The absorbence of the formazan at 490 nm can be measured directly from 96 well assay plates without additional processing. The quantity of formazan product as measured by the absorbence at 490 nm is directly proportional to the number of living cells in culture. Reagents for the MTS assay were obtained from Promega Corp. (Madison, Wis.). […] The plate was then further incubated at 37° C. in a humidified, 5% CO2 atmosphere for 4 hours. The absorbence of each well was then measured at 490 nm with an EL311 Microplate Autoreader (Bio-Tek Instruments). The mean absorbence for each treatment was then calculated, and the percent cytotoxicity was determined using the formula: [formula]
wherein AS represents the mean absorbence for each treatment and AC represents mean absorbence of the control treatment, i.e. cells not exposed to a conjugate.

B10.RIII mice = experiment: Treatment of collagen-induced arthritis (CIA) in B10.RIII mice; details: 2 mg/kg i.p.; for weight loss: alternate day treatment, observed for 84 days, PBS control about 5%±5%
Method: B10.RIII mice were injected with CII (200 μg) emulsified with complete Freund's adjuvant (CFA; 200 μg H37Ra). At day 21, mice were boosted with 100 μg of CII, randomized for CIA severity (13/group), and an alternate day treatment protocol was begun.

[1] = test system: IL-2-induced proliferation of murine splenocytes; experiment: Inhibition of IL-2-induced proliferation of murine splenocytes (trypan blue viable cell count); format: cell-based, mouse; details: for specific binding to the IL-2 receptor: concluded from inhibition of IL-2-induced proliferation (Example 20)
Method: The in vitro effects of IL-2-receptor-targeted conjugates on IL-2-induced proliferation of murine splenocytes was examined.
A sterile splenocyte suspension was prepared as follows. Spleens were aseptically removed from male C57 BL/6 mice and placed in sterile tissue culture medium (RPMI plus 10% fetal calf serum). The spleens were teased apart and gently aspirated using a Pasteur pipet. The resulting spleen cell suspension was then filtered through sterile gauze and centrifuged at 150×g for 10 minutes at 20° C. […] After 30 seconds, an equal volume of tissue culture medium was added to the suspension to restore isotonicity. The cell suspension was again centrifuged at 150×g for 10 minutes at 20° C., and the resulting cell pellet was washed once using tissue culture medium. The washed cell pellet was finally resuspended in tissue culture medium, and cell density was adjusted to 5×10^6 cells/ml.
To the wells of a 96-well assay plate (Falcon MICROTEST III), 50 μl volumes of the splenocyte suspension were added. Competitor (conjugate) solutions were prepared and diluted in tissue culture medium and added to the wells of the assay plate in 25 μl volumes. To control wells, 25 μl of tissue culture medium was added. […] To the wells of the assay plate, 25 μl of either tissue culture medium or a solution containing recombinant human IL-2 (Pharmingen) at a concentration of 20 ng/ml (in tissue culture medium) was added.
Final results were quantitated as follows. Viable cell counts were performed for each separate well of the assay plate using the trypan blue exclusion method. Trypan blue is taken up and imparts a blue color to dead cells. Briefly, an aliquot of cells was twice diluted in 0.4% trypan blue stain (Sigma Chemical Co., St. Louis, Mo.) and incubated for 5 minutes before counting with a hemacytometer and an inverted microscope. The percentage of viable cells was calculated as the number of unstained cells per unit volume divided by the total number of stained and unstained cells×100. Cell counts for each duplicate set of wells were averaged, and cell proliferation was calculated as percent change from control cells using the following formula: [formula]
Percent inhibition of IL-2 induced proliferation was calculated as follows. [formula]

[2] = 48 hours incubation, MTS assay, compared by adriamycin concentration

Compound	weight loss (B10.RIII mice)	cytotoxicity against CTLL-2 T cells (FIG. 1) (mouse CTLL-2 cells; [2])	specific binding to the IL-2 receptor [1]	further results
COc1cccc2c1C(=O)c1c(O)c3c(c(O)c1C2=O)C[C@@](O)(C(=O)CO)C[C@@H]3O[C@H]1C[C@H](N)[C@H](O)[C@H](C)O1 [adriamycin, reference compound]	–	–	–	cytotoxicity against CTLL-2 T cells (FIG. 1) (mouse CTLL-2 cells): rapidly diffuses into the cells and kills them
PEG-Gly-Phe-Leu-Gly-ADR (GFLG; PEG and adriamycin conjugated; OTHER INFORMATION: Synthetic Construct) [PEG-GFLG-ADR, reference compound]	about 10%±8%	much lower than that required for PEG-GFLG-ADR	–	–
PEG-TT23-ADR ({PEG}-TGLNRILLGFLG-{ADR}; reading uncertain)	about 3%±6%	kills such CTLL-2 T cells at concentrations much lower than that required for PEG-GFLG-ADR; also recorded: requires higher concentrations of adriamycin than unconjugated adriamycin	specifically bind to the IL-2 receptor	arthritis severity (cumulative daily arthritis scores) (B10.RIII mice; alternate day treatment from day 21, observed for 84 days, compared to PBS control (P≦0.02)): significantly greater number of mice with only minimum arthritis
PEG-TT23: prepared according to Example 1 except that no adriamycin was conjugated; PEG coupled to peptide TT23 (SEQ ID NO:22) (TGLNRILLGFLG; not fully specified (N-terminus); also: PEG conjugate, attachment site not given here)	–	–	specifically binds to the IL-2 receptor	inhibition of IL-2-induced proliferation of murine splenocytes (FIG. 2) ([1]; recombinant human IL-2, 48 hours, trypan blue exclusion): very effectively inhibits proliferation
TGLNRILLGFLG [peptide TT23]	–	–	–	amount needed to achieve similar levels of inhibition, relative to PEG-TT23 ([1]; IL-2-induced proliferation of murine splenocytes): about 100 fold

— patent US6693083B2, “Conjugates targeted to the interleukin-2 receptor” (Watson Pharmaceuticals, Inc., priority 1997, dated 2004)
